Measurements published in PubChem BioAssay AID200 (DTP/NCI, 2004).
“And” between values parts separate entries of the source, which are not always exact repeats. Equal values may be shown once. Inconclusive results and toxic doses are left out.

System: B6C3F1 mice, B16 melanoma ip, median survival T/C
Assay: NCI In Vivo Anticancer Drug Screen. Data for tumor model B16 Melanoma (intraperitoneal) in B6C3F1 mice
Settings: endpoint: median survival time, schedule: Q01DX009 (ip), higher = longer survival
Outline: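 Transplantable tumor in mice; treated vs vehicle control groups; survival or tumor size measured; value = T/C ratio.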

[1] = dose: 3.0 mg/kg/injection, vehicle: saline with Tween-80
[2] = dose: 3.12 mg/kg/injection, vehicle: water

COc1ccc(S(=O)(=O)N=N/C=C2\C=CC=CN2O)cc1OC
T/C [1]: 119 % of control
T/C (dose: 3.12 mg/kg/injection, vehicle: saline with Tween-80): 111 % of control
T/C (dose: 6.0 mg/kg/injection, vehicle: saline with Tween-80): 123 % of control
T/C (dose: 6.25 mg/kg/injection, vehicle: saline with Tween-80): 102 % of control
T/C (dose: 12.5 mg/kg/injection, vehicle: saline with Tween-80): 107 % of control
T/C (dose: 25.0 mg/kg/injection, vehicle: saline with Tween-80): 123 % of control
T/C (dose: 50.0 mg/kg/injection, vehicle: saline with Tween-80): 122 % of control

CCC(C)C(NC(=O)OCC1c2ccccc2-c2ccccc21)C(=O)O (stereo unspecified)
T/C (dose: 100.0 mg/kg/injection, vehicle: Klucel (hydroxypropylcellulose) (HPC)): 101 % of control and 102 % of control
T/C (dose: 200.0 mg/kg/injection, vehicle: Klucel (hydroxypropylcellulose) (HPC)): 98 % of control and 100 % of control

CCCCCCCCCCCCCCCCN(CC)CC
T/C (dose: 2.5 mg/kg/injection, vehicle: saline): 99 % of control
T/C (dose: 5.0 mg/kg/injection, vehicle: saline): 97 % of control
T/C (dose: 10.0 mg/kg/injection, vehicle: saline): 90 % of control

CC(C)(C)C(=O)CC(=O)C(F)(F)C(F)(F)C(F)(F)F.CC(C)(C)C(=O)CC(=O)C(F)(F)C(F)(F)C(F)(F)F.CC(C)(C)C(=O)CC(=O)C(F)(F)C(F)(F)C(F)(F)F.[Er]
T/C (dose: 12.5 mg/kg/injection, vehicle: saline + alcohol): 105 % of control
T/C (dose: 25.0 mg/kg/injection, vehicle: saline + alcohol): 118 % of control
T/C (dose: 50.0 mg/kg/injection, vehicle: saline + alcohol): 109 % of control
T/C (dose: 100.0 mg/kg/injection, vehicle: saline + alcohol): 111 % of control

Cc1ccnc(NN=O)c1
T/C [2]: 99 % of control
T/C (dose: 6.25 mg/kg/injection, vehicle: water): 100 % of control

Cc1cc(NCCCN(C)C)c2ccc3c(ccc4c(NCCCN(C)C)cc(C)nc43)c2n1
T/C (dose: 0.19 mg/kg/injection, vehicle: saline): 114 % of control
T/C (dose: 0.39 mg/kg/injection, vehicle: saline): 102 % of control
T/C (dose: 0.78 mg/kg/injection, vehicle: saline): 91 % of control
T/C (dose: 1.56 mg/kg/injection, vehicle: saline): 106 % of control
T/C (dose: 3.12 mg/kg/injection, vehicle: saline): 113 % of control and 102 % of control

O=NNc1ccccn1
T/C (dose: 1.56 mg/kg/injection, vehicle: water): 120 % of control and 96 % of control
T/C [2]: 116 % of control and 120 % of control and 124 % of control

COc1ccccc1Cc1c(OC)cc(OC)c(C(=O)CCc2ccccc2)c1O
T/C (dose: 4.3 mg/kg/injection, vehicle: other): 101 % of control
T/C (dose: 6.4 mg/kg/injection, vehicle: other): 92 % of control
T/C (dose: 9.6 mg/kg/injection, vehicle: other): 89 % of control
T/C (dose: 14.0 mg/kg/injection, vehicle: other): 94 % of control

COC(=O)C12OCC34C(CC5C(C)C6=CC(=O)OC6=CC5(C)C3C(O)C1O)OC(=O)C(O)C24 (stereo unspecified)
T/C (dose: 0.5 mg/kg/injection, vehicle: Klucel (hydroxypropylcellulose) (HPC)): 154 % of control
T/C (dose: 180.0 micrograms/kg/injection, vehicle: Klucel (hydroxypropylcellulose) (HPC)): 116 % of control
T/C (dose: 833.3 micrograms/kg/injection, vehicle: Klucel (hydroxypropylcellulose) (HPC)): 153 % of control
T/C (dose: 1388.8 micrograms/kg/injection, vehicle: Klucel (hydroxypropylcellulose) (HPC)): 178 % of control

CC1CCC2C(C)C(=O)OC2C2(C)C(=O)C=CC12 (stereo unspecified)
T/C (dose: 14.0 mg/kg/injection, vehicle: Klucel (hydroxypropylcellulose) (HPC)): 95 % of control
T/C (dose: 22.0 mg/kg/injection, vehicle: Klucel (hydroxypropylcellulose) (HPC)): 95 % of control
T/C (dose: 35.0 mg/kg/injection, vehicle: Klucel (hydroxypropylcellulose) (HPC)): 97 % of control
T/C (dose: 50.0 mg/kg/injection, vehicle: Klucel (hydroxypropylcellulose) (HPC)): 97 % of control

Cc1cc2c(C(C)C)c(O)c(O)c(C=O)c2c(O)c1-c1c(C)cc2c(C(C)C)c(O)c(O)c(C=O)c2c1O
T/C (dose: 0.38 mg/kg/injection, vehicle: saline with Tween-80): 97 % of control
T/C (dose: 0.75 mg/kg/injection, vehicle: saline with Tween-80): 100 % of control
T/C (dose: 1.5 mg/kg/injection, vehicle: saline with Tween-80): 98 % of control
T/C [1]: 106 % of control
